Results published in ChEMBL document CHEMBL5518181, “Studies of antibacterial activity (in vitro and in vivo) and mode of action for des-acyl tridecaptins (DATs)” (Eur J Med Chem, 2024).
Values after ≈ are worked out from the molar mass of the structure shown. Active and inactive are the calls of the source. The rule behind the calls is not given here.

Columns and labels:
Klebsiella pneumoniae [1] = experiment: Antibacterial activity against wild-type Klebsiella pneumoniae ATCC 13883 assessed as inhibition of bacterial growth incubated for 18 hrs in presence of 50% heat inactivated human serum; type: functional; details: read-out: MIC100
Staphylococcus aureus [2] = experiment: Antibacterial activity against wild type Staphylococcus aureus USA300 assessed as inhibition of bacterial growth incubated for 18 hrs; type: functional; details: read-out: MIC100
[3] = Hydrophobicity of compound assessed as %MeCN at peak elution by RP-HPLC analysis; type: physicochemical
Klebsiella pneumoniae [4] = experiment: Antibacterial activity against Klebsiella pneumoniae ATCC 13883 assessed as inhibition of bacterial growth incubated for 18 hrs in presence of 2 mM MgCl2; type: functional, organism-based
Cell membrane [5] = experiment: Induction of membrane permeabilization in Klebsiella pneumoniae ATCC 13883 at 64 ug/ml measured after 30 mins by Sytox Green labelling based microscopic analysis; type: cell membranes; details: dose 64.0 µg/ml
Acinetobacter baumannii = experiment: Antibacterial activity against wild-type Acinetobacter baumannii ATCC 19606 assessed as inhibition of bacterial growth incubated for 20 hrs; type: functional; details: read-out: MIC100
[6] = Lipophilicity, logD of compound at pH 7.4; type: physicochemical; details: buffer
Klebsiella pneumoniae [7] = experiment: Antibacterial activity against Klebsiella pneumoniae ATCC 43816 assessed as inhibition of bacterial growth incubated for 18 hrs; type: functional; details: read-out: MIC100
[8] = Cytotoxicity against human HepG2 cells incubated for 40 hrs by celltiter-glo luminescent cell viability assay; type: toxicity, cell-based
Lipopolysaccharide (LPS) [9] = experiment: Binding affinity to Escherichia coli O55:B5 LPS assessed as dissociation constant by ITC analysis; type: subcellular
Escherichia coli [10] = experiment: Antibacterial activity against colistin resistant Escherichia coli NCTC 13846 harboring mcr-1 gene assessed as inhibition of bacterial growth incubated for 18 hrs; type: functional; details: read-out: MIC100
Escherichia coli [11] = experiment: Antibacterial activity against wild-type Escherichia coli ATCC 25922 assessed as inhibition of bacterial growth incubated for 18 hrs in presence of 50% heat inactivated human serum; type: functional; details: read-out: MIC100
[12] = Hemolytic activity in human red blood cells at 400 ug/ml incubated for 45 mins by spectrophotometric analysis relative to control; type: toxicity, cell-based, Erythrocyte; details: red blood cells (erythrocytes), at 400 µg/mL, read-out: Activity
Providencia stuartii = experiment: Antibacterial activity against Providencia stuartii ATCC 25826 assessed as inhibition of bacterial growth incubated for 18 hrs; type: functional; details: read-out: MIC100
Klebsiella aerogenes = experiment: Antibacterial activity against Enterobacter aerogenes ATCC 13048 assessed as inhibition of bacterial growth incubated for 18 hrs; type: functional; details: read-out: MIC100
Escherichia coli [13] = experiment: Antibacterial activity against Escherichia coli ATCC 25922 assessed as inhibition of bacterial growth incubated for 18 hrs in presence of 150 mM NaCl; type: functional, organism-based
Salmonella typhimurium = experiment: Antibacterial activity against Salmonella typhimurium ATCC 13311 assessed as inhibition of bacterial growth incubated for 18 hrs; type: functional, Salmonella enterica subsp. enterica serovar Typhimurium; details: Salmonella enterica, read-out: MIC100
Escherichia coli [14] = experiment: Antibacterial activity against Escherichia coli ATCC 25922 assessed as inhibition of bacterial growth incubated for 18 hrs in presence of 25 mM bicarbonate; type: functional, organism-based
[15] = Aqueous solubility of compound at pH 4.6; type: physicochemical
Cell membrane [16] = experiment: Induction of membrane permeabilization in Escherichia coli ATCC 25922 at 64 ug/ml measured immediately by Sytox Green labelling based microscopic analysis; type: cell membranes; details: dose 64.0 µg/ml
[17] = Aqueous solubility of compound at pH 7.4; type: physicochemical
Klebsiella pneumoniae [18] = experiment: Antibacterial activity against Klebsiella pneumoniae ATCC BAA-2470 expressing NDM-1 assessed as inhibition of bacterial growth incubated for 18 hrs; type: functional; details: read-out: MIC100
Pseudomonas aeruginosa [19] = experiment: Antibacterial activity against wild-type Pseudomonas aeruginosa PAO1 assessed as inhibition of bacterial growth incubated for 24 hrs; type: functional; details: read-out: MIC100
Klebsiella pneumoniae [20] = experiment: Antibacterial activity against wild-type Klebsiella pneumoniae ATCC 13883 assessed as inhibition of bacterial growth incubated for 18 hrs; type: functional; details: read-out: MIC100
[21] = Drug uptake in Acinetobacter baumannii ATCC 19606 whole cells at 10 uM incubated for 10 mins by LC-MS/MS analysis; type: ADME
Klebsiella pneumoniae [22] = experiment: Antibacterial activity against Klebsiella pneumoniae ATCC 13883 assessed as inhibition of bacterial growth incubated for 18 hrs in presence of 2 mM CaCl2; type: functional, organism-based
Proteus mirabilis [23] = experiment: Antibacterial activity against Proteus mirabilis ATCC 25933 assessed as inhibition of bacterial growth incubated for 18 hrs; type: functional; details: read-out: MIC100
Escherichia coli [24] = experiment: Antibacterial activity against Escherichia coli ATCC 25922 assessed as inhibition of bacterial growth incubated for 18 hrs in presence of 2 mM CaCl2; type: functional, organism-based
Cell membrane [25] = experiment: Induction of membrane permeabilization in Escherichia coli ATCC 25922 at 64 ug/ml measured after 2 hrs by Sytox Green labelling based microscopic analysis; type: cell membranes; details: dose 64.0 µg/ml
Lipopolysaccharide (LPS) [26] = experiment: Binding affinity to Pseudomonas aeruginosa LPS assessed as dissociation constant by ITC analysis; type: subcellular
[27] = Clearance in rat microsomes; type: ADME, Microsome
[28] = Drug localization in cytoplasm of Escherichia coli ATCC 25922 at 10 uM incubated for 10 mins by LC-MS/MS analysis; type: ADME, subcellular
Escherichia coli [29] = experiment: Antibacterial activity against Escherichia coli ATCC BAA-2469 expressing NDM-1 assessed as inhibition of bacterial growth incubated for 18 hrs; type: functional; details: read-out: MIC100
[30] = Clearance in human microsomes; type: ADME, Microsome
Escherichia coli [31] = experiment: Antibacterial activity against Escherichia coli ATCC 25922 assessed as inhibition of bacterial growth incubated for 18 hrs in presence of 2 mM MgCl2; type: functional, organism-based
Enterobacter cloacae = experiment: Antibacterial activity against Enterobacter cloacae ATCC 23355 assessed as inhibition of bacterial growth incubated for 18 hrs; type: functional; details: read-out: MIC100
[32] = Binding affinity to gram negative bacterial lipid II assessed as dissociation constant by ITC analysis; parameters: species or system Bacteria
Staphylococcus aureus [33] = experiment: Antibacterial activity against […] assessed as inhibition of bacterial growth incubated for 18 hrs; type: functional; details: ATCC 29213, read-out: MIC100
[34] = Drug uptake in Pseudomonas aeruginosa PAO1 whole cells at 10 uM incubated for 10 mins by LC-MS/MS analysis; type: ADME
Klebsiella pneumoniae [35] = experiment: Antibacterial activity against Klebsiella pneumoniae ATCC 13883 assessed as inhibition of bacterial growth incubated for 18 hrs in presence of 5 mM KCl; type: functional, organism-based
Klebsiella pneumoniae [36] = experiment: Antibacterial activity against Klebsiella pneumoniae ATCC 13883 assessed as inhibition of bacterial growth incubated for 18 hrs in presence of 25 mM bicarbonate; type: functional, organism-based
[37] = Drug uptake in Escherichia coli ATCC 25922 whole cells at 10 uM incubated for 10 mins by LC-MS/MS analysis; type: ADME
Morganella morganii = experiment: Antibacterial activity against Morganella morganii ATCC 25830 assessed as inhibition of bacterial growth incubated for 18 hrs; type: functional; details: read-out: MIC100
Citrobacter freundii = experiment: Antibacterial activity against Citrobacter freundii ATCC 8090 assessed as inhibition of bacterial growth incubated for 18 hrs; type: functional; details: read-out: MIC100
Escherichia coli [38] = experiment: Antibacterial activity against Escherichia coli ATCC 25922 assessed as inhibition of bacterial growth incubated for 18 hrs in presence of 5 mM KCl; type: functional, organism-based
Escherichia coli [39] = experiment: Antibacterial activity against Escherichia coli ATCC 25922 harboring hldE knock-out assessed as inhibition of bacterial growth incubated for 18 hrs; type: functional; details: read-out: MIC100
Proteus mirabilis [40] = experiment: Antibacterial activity against Proteus mirabilis ATCC 7002 assessed as inhibition of bacterial growth incubated for 18 hrs; type: functional; details: read-out: MIC100
Serratia marcescens = experiment: Antibacterial activity against intrinsically colistin resistant Serratia marcescens ATCC 13880 assessed as inhibition of bacterial growth incubated for 18 hrs; type: functional; details: read-out: MIC100
Escherichia coli [41] = experiment: Antibacterial activity against wild-type Escherichia coli ATCC 25922 assessed as inhibition of bacterial growth incubated for 18 hrs; type: functional; details: read-out: MIC100
Pseudomonas aeruginosa [42] = experiment: Antibacterial activity against efflux-deficient Pseudomonas aeruginosa PAO750 assessed as inhibition of bacterial growth incubated for 18 hrs; type: functional; details: read-out: MIC100
[43] = Clearance in mouse microsomes; type: ADME, Microsome
[44] = Drug uptake in Escherichia coli ATCC 25922 at 10 uM incubated for 10 mins by LC-MS/MS analysis; type: ADME
[45] = Drug uptake in Proteus mirabilis ATCC 7002 whole cells at 10 uM incubated for 10 mins by LC-MS/MS analysis; type: ADME
Cell membrane [46] = experiment: Induction of membrane permeabilization in Escherichia coli ATCC 25922 at 64 ug/ml measured after 30 mins by Sytox Green labelling based microscopic analysis; type: cell membranes; details: dose 64.0 µg/ml
Cell membrane [47] = experiment: Induction of membrane permeabilization in Klebsiella pneumoniae ATCC 13883 at 64 ug/ml measured after 2 hrs by Sytox Green labelling based microscopic analysis; type: cell membranes; details: dose 64.0 µg/ml
Escherichia coli [48] = experiment: Antibacterial activity against Escherichia coli ATCC 25922 harboring tolC knock-out assessed as inhibition of bacterial growth incubated for 18 hrs; type: functional; details: read-out: MIC100
Klebsiella pneumoniae [49] = experiment: Antibacterial activity against Klebsiella pneumoniae ATCC 13883 assessed as inhibition of bacterial growth incubated for 18 hrs in presence of 150 mM NaCl; type: functional, organism-based

With `CC[C@H](C)[C@@H](NC(=O)[C@@H](NC(=O)[C@H](CCC(=O)O)NC(=O)[C@H](Cc1ccccc1)NC(=O)[C@@H](CCN)NC(=O)[C@H](CCN)NC(=O)[C@H](CO)NC(=O)[C@@H](Cc1c[nH]c2ccccc12)NC(=O)[C@@H](CO)NC(=O)CNC(=O)[C@@H](CCN)NC(=O)[C@H](N)C(C)C)C(C)C)C(=O)N[C@@H](C)C(=O)O` the MIC (Klebsiella pneumoniae [1]) was 8 µg/mL, the MIC (Staphylococcus aureus [2]) was over 32 µg/mL and the “MeCN percentage at peak elution” value [3] was 42%. For the same compound, the Activity (Klebsiella pneumoniae [4]) was “Active”, the Activity (Cell membrane [5]) was “inactive” and the MIC (Acinetobacter baumannii) was 32 µg/mL (≈ 22.9 µM). The logD [6] was 1.09, the MIC (Klebsiella pneumoniae [7]) was 8 µg/mL (≈ 5.74 µM) and the IC50 at 40 h [8] was 76 µg/mL (≈ 54.5 µM). For the same compound, the Kd (Lipopolysaccharide (LPS) [9]) was 5.7 µM, the MIC (Escherichia coli [10]) was 32 µg/mL (≈ 22.9 µM) and the MIC (Escherichia coli [11]) was 32 µg/mL. For the same compound, the hemolysis at 0.75 h, 400 ug/ml [12] was 3.6%, the MIC (Providencia stuartii) was over 32 µg/mL and the MIC (Klebsiella aerogenes) was over 32 µg/mL. The Activity (Escherichia coli [13]) was “Active”, the MIC (Salmonella typhimurium) was over 32 µg/mL and the Activity (Escherichia coli [14]) was “Active”. The solubility [15] was over 1000 µg/mL, the Activity (Cell membrane [16]) was “inactive” and the solubility [17] was over 1000 µg/mL. The MIC (Klebsiella pneumoniae [18]) was 32 µg/mL (≈ 22.9 µM), the MIC (Pseudomonas aeruginosa [19]) was over 64 µg/mL and the MIC (Klebsiella pneumoniae [20]) was 32 µg/mL (≈ 22.9 µM). For the same compound, the Drug uptake [21] was ~ 60 ng, the Activity (Klebsiella pneumoniae [22]) was “Active” and the MIC (Proteus mirabilis [23]) was over 32 µg/mL. For the same compound, the Activity (Escherichia coli [24]) was “Active”, the Activity (Cell membrane [25]) was “Active” and the Kd (Lipopolysaccharide (LPS) [26]) was 13.5 µM. For the same compound, the microsomal CLint [27] was 108 µL/min/mg, the Drug uptake [28] was “Active” and the MIC (Escherichia coli [29]) was over 32 µg/mL. The microsomal CLint [30] was 22 µL/min/mg, the Activity (Escherichia coli [31]) was “Active” and the MIC (Enterobacter cloacae) was over 32 µg/mL. The Kd [32] was 0.6 µM, the MIC (Staphylococcus aureus [33]) was 32 µg/mL (≈ 22.9 µM) and the Drug uptake [34] was ~ 60 ng. The Activity (Klebsiella pneumoniae [35]) was “Active”, the Activity (Klebsiella pneumoniae [36]) was “Active” and the Drug uptake [37] was ~ 60 ng. The MIC (Morganella morganii) was over 32 µg/mL, the MIC (Citrobacter freundii) was 32 µg/mL (≈ 22.9 µM) and the Activity (Escherichia coli [38]) was “Active”. It also gave an MIC (Escherichia coli [39]) of 8 µg/mL (≈ 5.74 µM), an MIC (Proteus mirabilis [40]) of over 64 µg/mL and an MIC (Serratia marcescens) of 32 µg/mL (≈ 22.9 µM). For the same compound, the MIC (Escherichia coli [41]) was 32 µg/mL (≈ 22.9 µM), the MIC (Pseudomonas aeruginosa [42]) was over 32 µg/mL and the microsomal CLint [43] was 25 µL/min/mg. For the same compound, the Drug uptake [44] was “Active”, the Drug uptake [45] was ~ 60 ng and the Activity (Cell membrane [46]) was “inactive”. For the same compound, the Activity (Cell membrane [47]) was “Active”, the MIC (Escherichia coli [48]) was over 32 µg/mL and the Activity (Klebsiella pneumoniae [49]) was “Active”.
